Test results published in patent publication US20230348421A1, “5-HT2A RECEPTOR INHIBITOR OR INVERSE AGONIST, PREPARATION METHOD THEREFOR, AND APPLICATION THEREOF” (GENEORA PHARMA (SHIJIAZHUANG) CO., LTD., priority 2020, published 2023).
Read-outs that look alike come from different tables or passages of the source.

Experiments:
[1] = target: T1, 5-HT2A receptor (Homo sapiens (Human), UniProt P28223); assay: Screening for 5-HT2A inverse agonistic activity (NIH3T3-5-HT2A R cells, Bright-Glo luciferase, 120 h); assay type: cell-based; conditions: NIH3T3-5HT2AR cells, cell inhibition rate
T1 sequence (P28223 whole entry): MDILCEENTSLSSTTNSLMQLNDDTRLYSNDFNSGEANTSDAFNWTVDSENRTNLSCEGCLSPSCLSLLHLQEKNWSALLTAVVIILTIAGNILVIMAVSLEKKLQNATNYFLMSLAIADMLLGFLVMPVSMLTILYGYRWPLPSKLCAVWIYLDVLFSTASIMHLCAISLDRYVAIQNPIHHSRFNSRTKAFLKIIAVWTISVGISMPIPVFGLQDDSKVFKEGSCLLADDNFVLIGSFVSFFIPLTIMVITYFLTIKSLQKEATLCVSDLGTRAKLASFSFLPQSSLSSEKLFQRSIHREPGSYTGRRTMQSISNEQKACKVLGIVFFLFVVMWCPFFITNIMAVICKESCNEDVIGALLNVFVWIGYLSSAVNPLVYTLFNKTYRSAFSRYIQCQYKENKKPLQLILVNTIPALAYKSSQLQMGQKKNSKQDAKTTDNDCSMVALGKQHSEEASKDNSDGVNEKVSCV
Method: • Cell lines: Adherent cells NIH3T3-5-HT2A R • Cell culture medium: DMEM+10% FBS (purchased from GBICO) • Cell culture plate: White-wall clear-bottom 96-well plate (purchased from Perkin Elmer) • Detection kit: Bright-Glo™ Luciferase (purchased from Promega) • Detection instrument: BioTek multifunctional microplate reader
NIH3T3-5HT2AR cells in the logarithmic growth phase were seeded into a white-wall clear-bottom 96-well plate at a density of 1000 cells per well, and cultured overnight in a 37° C., 5% CO2 incubator. […] On the sixth day, a Bright-Glo™ Luciferase reagent with a volume equal to that of cell sap was added to the cells, and the cells were incubated at room temperature in the dark for 20 min. […] The data was processed with GraphPad Prism 7.0 to obtain a cell inhibition rate curve, and the IC50 was calculated.
Cell inhibition rate (%)=[100−(Lum test drug−Lum culture solution)/(Lum cell control−Lum culture solution)×100]%

[2] = target: T1, 5-HT2A receptor; assay: Test for 5-HT2A antagonistic activity (calcium ion antagonism, FLIPR, CHO-K1/5-HT2A cells); assay type: cell-based; conditions: 100 nM a-methyl-5-HT, Ca2+ signal
Method: • Cell lines: CHO-K1/5-HT2A (Chempartner) • Cell culture medium: DMEM/F12+10% FBS (purchased from GBICO) • Cell culture plate: 384-well Assay Plate (purchased from Corning) • Detection kit: FLIPR® Calcium 4 Assay Kit (purchased from Molecular Devices)
After that, centrifugation was performed to remove the culture medium in the cell culture plate. Dye was added, and the cells were incubated in a 37° C., 5% CO2 incubator for another 1 h. The cell culture plate was placed on the FLIPR. A compound to be tested was added, and the Ca^2+ signal was detected, wherein the compound to be tested was subjected to 3-fold gradient dilution with PBS to obtain 10 concentrations, with the highest concentration of 10 uM, and double replicate wells were set up. […] In order to determine the test stability, risperidone was used as a positive control. The data were processed with GraphPad Prism 7.0 to obtain a cell inhibition rate curve, and the IC50 was calculated.
Inhibition rate (%)=100%−[(signal value of the compound to be tested−signal value of the test solution)/(the maximum signal value−the signal value of the test solution)]×100%

[3] = target: hERG potassium channels (Homo sapiens (Human), UniProt Q12809); assay: hERG inhibitory activity, whole-cell patch clamp in CHO-hERG cells
hERG potassium channels, sequence (Q12809 whole entry): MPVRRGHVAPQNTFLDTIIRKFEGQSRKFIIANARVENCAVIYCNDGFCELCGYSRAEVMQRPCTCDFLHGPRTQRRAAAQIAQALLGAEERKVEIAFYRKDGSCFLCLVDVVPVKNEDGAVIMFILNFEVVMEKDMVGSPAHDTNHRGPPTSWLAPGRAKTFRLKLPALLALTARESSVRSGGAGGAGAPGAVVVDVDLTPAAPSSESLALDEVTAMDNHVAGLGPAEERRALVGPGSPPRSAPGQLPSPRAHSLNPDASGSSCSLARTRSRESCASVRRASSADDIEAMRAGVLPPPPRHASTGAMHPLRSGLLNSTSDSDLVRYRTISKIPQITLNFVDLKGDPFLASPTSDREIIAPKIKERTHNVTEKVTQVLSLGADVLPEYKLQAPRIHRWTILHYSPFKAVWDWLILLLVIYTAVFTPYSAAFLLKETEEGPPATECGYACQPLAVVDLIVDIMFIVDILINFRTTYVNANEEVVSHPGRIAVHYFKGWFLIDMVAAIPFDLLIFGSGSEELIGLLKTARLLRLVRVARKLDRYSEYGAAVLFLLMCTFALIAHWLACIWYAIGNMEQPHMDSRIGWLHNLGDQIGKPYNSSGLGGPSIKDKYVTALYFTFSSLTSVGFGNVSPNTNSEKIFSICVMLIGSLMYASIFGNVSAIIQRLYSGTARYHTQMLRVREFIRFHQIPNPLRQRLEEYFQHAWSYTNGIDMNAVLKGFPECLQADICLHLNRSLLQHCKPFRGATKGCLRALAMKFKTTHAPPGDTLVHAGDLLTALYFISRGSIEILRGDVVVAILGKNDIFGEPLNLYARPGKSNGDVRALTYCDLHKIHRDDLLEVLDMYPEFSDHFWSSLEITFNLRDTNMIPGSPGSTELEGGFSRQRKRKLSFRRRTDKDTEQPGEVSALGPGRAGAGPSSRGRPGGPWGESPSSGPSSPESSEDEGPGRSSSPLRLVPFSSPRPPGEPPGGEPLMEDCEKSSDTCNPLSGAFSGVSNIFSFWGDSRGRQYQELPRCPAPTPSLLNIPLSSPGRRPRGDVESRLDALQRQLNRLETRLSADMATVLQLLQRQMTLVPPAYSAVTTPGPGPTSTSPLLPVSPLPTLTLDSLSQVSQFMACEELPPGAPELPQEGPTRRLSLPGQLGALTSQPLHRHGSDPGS
Method: • Name: Dimethyl sulfoxide (DMSO)
• Species & strains: CHO-hERG cell lines (Chinese hamster ovary cells stably expressing hERG channels) • Culture medium: 90% F12, 10% fetal bovine serum, 100 μg/mL G418 and 100 μg/mL hygromycin B • Culture conditions: 5% CO2, 37° C. incubator • Freezing conditions: Liquid nitrogen
Digestion was performed at room temperature for 3-5 min. The digestion solution was pipetted, and the cells were resuspended in extracellular fluid and transferred to an experimental dish for electrophysiological recording for later use.
On the day of the test, the compound was diluted with DMSO to an intermediate concentration. 10 μL of compound with the intermediate concentration was taken, transferred to 4990 μL of extracellular fluid, and subjected to 500-fold dilution to obtain a final concentration to be tested.
CHO (Chinese Hamster Ovary) cells stably expressing hERG potassium channels were taken, and hERG potassium channel currents were recorded at room temperature by means of a whole-cell patch-clamp technique. A glass microelectrode was formed by pulling a glass electrode blank (BF150-86-10, Sutter) with a glass microelectrode puller. The tip resistance was about 2-5 MΩ after perfusion of a pippette solution. The glass microelectrode could be connected to a patch clamp amplifier by inserting the glass microelectrode into an amplifier probe. Clamping voltages and data recording were controlled and recorded by a computer with pClamp 10 software, with a sampling frequency of 10 kHz and a filtering frequency of 2 kHz. After the whole-cell recording was obtained, the cells were clamped at −80 mV, and the step voltage evoking hERG potassium current (I hERG) was changed from −80 mV to +20 mV by giving a 2 s depolarization voltage and then repolarized to −50 mV for 1 s, and returned to −80 mV. Such voltage stimulation was given every 10 s, and the administration process was started after it was determined that the hERG potassium currents were stable (1 min). The compound at each test concentration was given at least 1 min, and at least 2 cells (n≥2) were tested for each concentration.
Data analysis was performed by means of pClamp 10 and GraphPad Prism 5.0 software.
The formula for calculating the degree of inhibition of different compound concentrations on hERG potassium currents (the hERG tail current peak value evoked at −50 mV) was:
Y=Bottom+(Top−Bottom)/(1+10^((LogIC50−X)*HillSlope))
wherein X is a Log value of a test concentration of a test sample, Y is the inhibition percentage at a corresponding concentration, and Bottom and Top are the minimum inhibition percentage and the maximum inhibition percentage, respectively.

[4] = read-out: hERG inhibitory activity IC50, CHO-hERG cells, whole-cell patch clamp, tail current at -50 mV

Compound | IC50 [1] [nM] | IC50 [2] [nM] | IC50 [3, 4] [nM] | IC50 [3] [nM]
CC(C)COc1ccc(CNC(=O)N(Cc2ccc(F)cn2)C2CCN(C)CC2)cc1 [Compound 1] | 22.8 | 8.64 | 410 | 
CN1CCC(N(Cc2ccc(F)cn2)C(=O)NCc2ccc(O)cc2)CC1 [Compound 3] |  | 11.6 | > 10000 | 
CC(C)COc1ccc(CNC(=O)N(Cc2ncc(F)cn2)C2CCN(C)CC2)cc1 [Compound 13] |  | 1.92 | 1300 | 
CC(C)COc1ccc(CNC(=O)N(CCCN(C)C)Cc2ccc(F)cc2)cc1 [Compound 14] |  | 2.17 |  | 
CN1CCC(N(Cc2ccc(F)cn2)C(=O)NCc2ccc(OCCCF)cc2)CC1 [Compound 17] |  |  |  | 1550
CN1CCC(N(Cc2ccc(F)cn2)C(=O)NCc2ccc(OC(C)(C)C)cc2)CC1 [Compound 18] | 1.12 | 5.75 | 850 | 
CC(C)COc1ccc(CNC(=O)N(Cc2ccc(F)cc2)C2CCN(C)CC2)nc1 [Compound 19] | 49.9 | 6.94 | 480 | 
CC(C)COc1ccc(CNC(=O)N(Cc2ccc(F)cc2)C2CCN(C)CC2)cn1 [Compound 20] |  | 9.14 | 680 | 
CC(C)OCc1ccc(CNC(=O)N(Cc2ccc(F)cc2)C2CCN(C)CC2)cc1 [Compound 21] | 34.1 | 2.1 | 910 | 
CC1(C)Cc2cc(CNC(=O)N(Cc3ccc(F)cn3)C3CCNCC3)ccc2O1 [Compound 23] | 5.64 | 6.02 | > 10000 | 
CN1CCC(N(Cc2ccc(F)cn2)C(=O)NCc2ccc3c(c2)CC(C)(C)O3)CC1 [Compound 24] | 2.54 | 3.49 | 3610 | 
CC(C)C(O)Cc1ccc(CNC(=O)N(Cc2ccc(F)cc2)C2CCN(C)CC2)cc1 (stereo not drawn) [Compound 25] | 16.9 | 6.73 | 1030 | 
CN1CCC(N(Cc2ccc(F)cn2)C(=O)NCc2ccc(OCC(F)(F)F)c(F)c2)CC1 [Compound 26] | 9.79 | 6.86 | 530 | 
CN1CCC(N(Cc2ccc(F)cc2)C(=O)NCc2ccc3c(c2)CC(C)(C)O3)CC1 [Compound 31] | 30 | 17.4 | 1850 | 
CC(C)OCc1ccc(CNC(=O)N(Cc2ccc(F)cn2)C2CCN(C)CC2)cc1 [Compound 37] | 42.8 | 2.05 | 3990 | 
CN1CCC(N(Cc2ccc(F)cn2)C(=O)NCc2ccc(OC(F)(F)C(F)(F)F)cc2)CC1 [Compound 38] | 10 |  |  | 
CC(C)C1Cc2cc(CNC(=O)N(Cc3ccc(F)cn3)C3CCN(C)CC3)ccc2O1 (stereo not drawn) [Compound 41] | 4.29 | 9.98 | 790 | 
CN1CCC(N(Cc2ccc(F)cn2)C(=O)NCc2ccc(OC(CF)CF)cc2)CC1 [Compound 45] | 7.04 | 2.42 | 5500 | 
CN1CCC(N(Cc2ccc(F)cn2)C(=O)NCc2ccc3c(c2)CCO3)CC1 [Compound 46] | 11.1 | 4.15 | 10400 | 
CN1CCC(N(Cc2ccc(F)cn2)C(=O)NCc2ccc(OCC(C)(C)F)cc2)CC1 [Compound 47] | 9.22 | 3.13 | 1390 | 
CCN1CCC(N(Cc2ccc(F)cn2)C(=O)NCc2ccc3c(c2)CC(C)(C)O3)CC1 [Compound 48] | 22.5 | 3.14 | 2400 | 
CCOc1ccc(CNC(=O)N(Cc2ccc(F)cn2)C2CCN(C)CC2)cc1 [Compound 49] | 7.3 | 4.1 | 2430 | 
CC(C)c1cc2cc(CNC(=O)N(Cc3ccc(F)cn3)C3CCN(C)CC3)ccc2o1 [Compound 50] |  | 20.9 | 550 | 
CC(C)CCc1ccc(CNC(=O)N(Cc2ccc(F)cn2)C2CCN(C)CC2)cc1 [Compound 52] | 42.7 |  |  | 
CN1CCC(N(Cc2ccc(F)cn2)C(=O)NCc2ccc(OCCC(F)(F)F)cc2)CC1 [Compound 55] | 2.23 | 4.7 | 690 | 

Compound | IC50 [1] [nM] | IC50 [2] [nM] | IC50 [3, 4] [nM] | IC50 [3] [nM]
CN1CCC(N(Cc2ccc(F)cc2)C(=O)NCc2ccc(OCCF)cc2)CC1 [Compound 56] | 9.9 | 5.77 |  | 
CN1CCC(N(Cc2ccc(F)cc2)C(=O)NCc2ccc(OCC(F)F)cc2)CC1 [Compound 57] | 6.83 | 6.41 |  | 
CN1CCC(N(Cc2ccc(F)cn2)C(=O)NCc2ccc(OCCF)cc2)CC1 [Compound 60] | 16.4 | 2.11 | > 10000 | 
CN1CCC(N(Cc2ncc(F)cc2F)C(=O)NCc2ccc3c(c2)CC(C)(C)O3)CC1 [Compound 61] | 31.2 | 3.32 | 2550 | 
CN1CCC(N(Cc2ccc(F)cn2)C(=O)NCc2ccc(OCCCCF)cc2)CC1 [Compound 62] | 32.8 | 2.35 | 1430 | 
CC(C)COc1ccc(CNC(=O)N(Cc2ccc(F)cn2)C2CCN(CC3CCCCC3)CC2)cc1 [Compound 63] | 20.8 |  |  | 
CN1CCC(N(Cc2ccc(F)cc2)C(=O)NCc2ccc(OCC(F)(F)F)cc2)CC1 [Compound 65] | 18.4 | 7.98 | 670 | 
CCN1CCC(N(Cc2ccc(F)cn2)C(=O)NCc2ccc(OCC(F)(F)F)cc2)CC1 [Compound 70] | 12.3 | 8.09 | 500 | 
CN1CCC(N(Cc2ccc(F)cn2)C(=O)NCc2cc(Cl)c3c(c2)CC(C)(C)O3)CC1 [Compound 71] |  | 9.52 | 3320 | 
CN1CCC(N(Cc2ccc(F)cc2F)C(=O)NCc2ccc(OCC(F)F)cc2)CC1 [Compound 74] |  | 8.95 |  | 
CN1CCC(N(Cc2ccc(F)cc2F)C(=O)NCc2ccc(OCCF)cc2)CC1 [Compound 75] | 14.4 | 8.35 |  | 
CN1CCC(N(Cc2ccc(F)cc2F)C(=O)NCc2ccc3c(c2)CC(C)(C)O3)CC1 [Compound 76] |  | 20.7 |  | 
CN1CCC(N(Cc2ccc(F)cn2)C(=O)NCc2cc(Br)c3c(c2)CC(C)(C)O3)CC1 [Compound 77] | 6.44 | 6.59 |  | 
CN1CCC(N(Cc2ccc(F)cn2)C(=O)NCc2ccc(OCC(F)F)cc2)CC1 [Compound 78] | 6.01 | 2.17 | 1740 | 
CN1CCC(N(Cc2ncc(F)cc2F)C(=O)NCc2ccc(OC(C)(C)C)cc2)CC1 [Compound 81] | 30.1 | 2.78 | 680 | 
CN1CCC(N(Cc2ccc(F)cn2)C(=O)NCc2ccc(OCCCC(F)(F)F)cc2)CC1 [Compound 82] | 1.95 | 3.78 | 500 | 
CC(C)COc1ccc(CNC(=O)N(Cc2ccc(F)nn2)C2CCN(C)CC2)cc1 [Compound 91] |  | 14.7 | 580 | 
CN1CCC(N(Cc2ccc(F)cn2)C(=O)NCc2ccc(OCCC(F)F)cc2)CC1 [Compound 92] | 6.54 | 4.64 |  | 
CN1CCC(N(Cc2ncc(F)cc2F)C(=O)NCc2ccc(OCCC(F)F)cc2)CC1 [Compound 93] | 10.6 | 4.26 |  | 
CN1CCC(N(Cc2ccc(F)cn2)C(=O)NCc2ccc(OCCCC(F)F)cc2)CC1 [Compound 94] | 7.59 | 4.29 |  | 
CN1CCC(N(Cc2ncc(F)cc2F)C(=O)NCc2ccc(OCCCC(F)F)cc2)CC1 [Compound 95] | 27.9 | 5.13 |  | 
CC(C)COc1ccc(CNC(=O)N(Cc2ccc(F)cn2)C2CCN(C)CC2)nc1 [Compound 96] | 26.4 | 11.4 |  | 
CN1CCC(N(Cc2ccc(F)cn2)C(=O)NCc2ccc3c(c2)CCC(C)(C)O3)CC1 [Compound 98] |  | 21.2 | 1460 | 
CN1CCC(N(Cc2ccc(F)cn2)C(=O)NCc2ccc3c(c2)C=CC(C)(C)O3)CC1 [Compound 99] | 33.3 | 17.3 | 650 | 
